Columns and labels:
[1] = tested on: colorectal cancer cell line HT-29 cells; test: Growth inhibitory effect against cancer cell lines (3H-thymidine uptake), HT-29; format: cell-based; conditions: Homo sapiens, HT-29, inhibition of 3H-thymidine uptake; test substance 18 hrs, then 3H-thymidine 6 hrs; triplicate
Method in brief: (§1)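 IC50 = concentration reducing ^3H-thymidine incorporation to 50% of DMSO control, measured in triplicate. Compound added 24 hrs after plating (1.0×10^4 cells/well); label (0.25 μCi/well) given after 18 hrs of treatment, followed by 6 hrs further culture and scintillation counting of harvested cells.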

p15 protein = test: Evaluation of p15 induction activity (Western blotting); format: cell-based; conditions: test substance 0.1 μM, 24 hrs, ACHN cells or HT-29 cells, compared to DMSO, n=2
Method in brief: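 p15 protein quantified by densitometry of anti-p15 Western blots (10 μg protein per lane, mean of n=2). Samples came from HT-29 or ACHN cells given 0.1 μM compound for 24 h after 24 h plating, with DMSO as control.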

[2] = tested on: ACHN cells or HT-29 cells; test: Cell cycle analysis (flow cytometry, CycleTEST PLUS); format: cell-based; conditions: test substance less than 10 μM, 24 hrs, compared to DMSO, n=2, read-out: CELL RATIO OF G0/G1 PHASE
Description: ACHN cells or HT-29 cells were cultured in a 6 well plate at 2.5×10^5 cells/1.8 mL/well for 24 hrs, then a test substance (less than 10 μM) dissolved in DMSO was added. After 24 hrs, cells were detached using trypsin-EDTA and the DNA content of single cell was analyzed by flow cytometry method using a CycleTEST PLUS (BECKTON DICKINSON) kit, and the proportion of the cells in the G0/G1 phase·S phase·G2/M phase was calculated. As a control, DMSO was used and the test was performed with n=2.

[3] = tested on: Renal cancer cell line ACHN cell; test: Growth inhibitory effect against cancer cell lines (3H-thymidine uptake), ACHN; format: cell-based; conditions: Homo sapiens, ACHN
Method in brief: as §1

p27 protein = p27 protein induction test (Western blotting); format: cell-based; conditions: test substance (0.1 1M), 24 hrs, ACHN cells or HT-29 cells, compared to DMSO, n=2
Method in brief: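 p27 level taken as anti-p27 band density by densitometry, mean of n=2, with DMSO as control. Samples loaded at amount equivalent to 10 μg BSA. Cells were ACHN or HT-29, exposed 24 h to […] test substance after 24 h pre-culture.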

HT-29 cells = test: Evaluation on the nude-mouse xenograft model; format: in vivo, mouse (Balb/c-nu/nu); conditions: HT-29, po, 240 h, 30 mg/kg orally twice a day for 10 days, tumor volume, treated vs vehicle group, n=6-8, read-out: T/C(%)
Description: HT-29 cells (5.0×10^6 cells/100 μL/head, suspended in HBSS (Hanks' solution)) in the logarithmic growth phase were implanted in a mouse (Balb/c-nu/nu) at the right lateral abdomen under ether anesthesia. After 5 days of implantation, the long diameter and short diameter of the tumor were measured, and the mice were divided into groups such that each group has an equivalent average tumor volume. For grouping, a grouping soft (general grouping system (Visions) was used. From the next day of the grouping, a test substance suspended in 0.5% MC (methyl cellulose) was repeatedly orally administered twice a day for 10 days (30 mg/kg). The tumor volume was measured twice a week and used as an index of antitumor activity. As a control, 0.5% MC was used and the test was performed with n=6-8.
The index (T/C (%)) of the antitumor activity was calculated according to the following formula.
T/C(%)=(The average tumor volume of the group treated with a test substance)/(The average tumor volume of the Vehicle group)×100
The tumor volume was calculated according to the following formula.
Tumor volume(mm^3)=L×W×W/2
(L: long diameter (mm) of tumor, W: short diameter (mm) of tumor)

IC50 [1] [nM] | IC50 [3] [nM] | SMILES | fold induction at 0.1 µM (p15 protein) | fold induction [2] | fold induction at 0.1 µM (p27 protein) | fold induction at up to 10 µM [2] | response vs control in vivo at 30 mg/kg (HT-29 cells) [%]
100 to 1000 |  | CN(C)c1ccc(Nc2cc(=O)n(C)c3c2c(=O)n(-c2ccccc2)c(=O)n3-c2ccccc2)cc1 [Example 1-7] | ≥ 1.5 | ≥ 1.2 |  |  | 
100 to 1000 |  | Cn1c(=O)cc(Nc2ccc(Br)cc2)c2c(=O)n(-c3ccccc3)c(=O)n(-c3ccccc3)c21 [Example 1-11] | ≥ 1.5 | ≥ 1.2 |  |  | 
 |  | CNc1ccc(Nc2cc(=O)n(C)c3c2c(=O)n(-c2ccccc2)c(=O)n3-c2ccccc2)cc1 [Example 1-49] | ≥ 1.5 | ≥ 1.2 |  |  | 
 |  | CCCCc1ccccc1Nc1cc(=O)n(C)c2c1c(=O)n(-c1ccccc1)c(=O)n2-c1ccccc1 [Example 1-51] | ≥ 1.5 | ≥ 1.2 |  |  | 
100 to 1000 |  | Cc1cc(N(C)C)ccc1Nc1cc(=O)n(C)c2c1c(=O)n(-c1ccccc1)c(=O)n2-c1ccccc1 [Example 1-55] | ≥ 1.5 | ≥ 1.2 |  |  | 
 |  | Cn1c(=O)cc(Nc2ccc(Cl)cc2)c2c(=O)n(-c3ccsc3)c(=O)n(-c3ccsc3)c21 [Example 1-77] | ≥ 1.5 | ≥ 1.2 |  |  | 
 |  | CCn1c(=O)c2c(Nc3ccc(Cl)cc3)cc(=O)n(C)c2n(-c2ccccc2)c1=O [Example 1-78] | ≥ 1.5 | ≥ 1.2 |  |  | 
 |  | Cn1c(=O)cc(Nc2ccc(Cl)cc2)c2c(=O)n(C3CC3)c(=O)n(-c3ccccc3)c21 [Example 1-84] | ≥ 1.5 | ≥ 1.2 |  |  | 
 |  | Cc1ccccc1-n1c(=O)n(C)c(=O)c2c(Nc3ccc(Cl)cc3)cc(=O)n(C)c21 [Example 1-85] | ≥ 1.5 | ≥ 1.2 |  |  | 
 |  | Cc1cccc(-n2c(=O)n(C)c(=O)c3c(Nc4ccc(Cl)cc4)cc(=O)n(C)c32)c1 [Example 1-86] | ≥ 1.5 | ≥ 1.2 |  |  | 
100 to 1000 | 100 to 1000 | CN(C)c1ccc(Nc2cc(=O)n(C)c3c2c(=O)n(C2CC2)c(=O)n3-c2ccccc2)cc1 [Example 1-88] | ≥ 1.5 | ≥ 1.2 |  |  | 
10 to 100 | 100 to 1000 | Cn1c(=O)cc(Nc2ccc(Br)cc2)c2c(=O)n(C3CC3)c(=O)n(-c3ccccc3)c21 [Example 1-89] | ≥ 1.5 | ≥ 1.2 | ≥ 1.5 |  | 
 |  | Cn1c(=O)cc(Nc2ccc(Br)cc2)c2c(=O)n(CC(F)(F)F)c(=O)n(-c3ccccc3)c21 [Example 1-92] | ≥ 1.5 | ≥ 1.2 |  |  | 
 |  | CN(C)c1ccc(Nc2cc(=O)n(C)c3c2c(=O)n(CC(F)(F)F)c(=O)n3-c2ccccc2)cc1 [Example 1-93] | ≥ 1.5 | ≥ 1.2 |  |  | 
 |  | CCn1c(=O)c2c(Nc3ccc(Cl)cc3)cc(=O)n(C)c2n(-c2ccc(Cl)cc2)c1=O [Example 1-94] | ≥ 1.5 |  |  | ≥ 1.2 | 
100 to 1000 |  | Cc1ccccc1-n1c(=O)n(C)c(=O)c2c(Nc3ccc(Br)cc3)cc(=O)n(C)c21 [Example 1-95] | ≥ 1.5 | ≥ 1.2 |  |  | 

IC50 [1] [nM] | IC50 [3] [nM] | SMILES | fold induction at 0.1 µM (p15 protein) | fold induction [2] | fold induction at 0.1 µM (p27 protein) | fold induction at up to 10 µM [2] | response vs control in vivo at 30 mg/kg (HT-29 cells) [%]
100 to 1000 |  | CCn1c(=O)c2c(Nc3ccc(N(C)C)cc3)cc(=O)n(C)c2n(-c2ccccc2)c1=O [Example 1-97] | ≥ 1.5 | ≥ 1.2 |  |  | 
100 to 1000 |  | Cc1ccccc1-n1c(=O)n(C)c(=O)c2c(Nc3ccc(N(C)C)cc3)cc(=O)n(C)c21 [Example 1-99] | ≥ 1.5 | ≥ 1.2 |  |  | 
100 to 1000 |  | Cn1c(=O)cc(Nc2ccc(Cl)cc2)c2c(=O)n(C3CC3)c(=O)n(-c3ccccc3F)c21 [Example 1-100] | ≥ 1.5 | ≥ 1.2 |  |  | 
 |  | Cc1ccccc1-n1c(=O)n(C2CC2)c(=O)c2c(Nc3ccc(Cl)cc3)cc(=O)n(C)c21 [Example 1-102] | ≥ 1.5 | ≥ 1.2 |  |  | 
 |  | CCc1ccccc1-n1c(=O)n(C2CC2)c(=O)c2c(Nc3ccc(Cl)cc3)cc(=O)n(C)c21 [Example 1-103] | ≥ 1.5 | ≥ 1.2 |  |  | 
 |  | COc1ccccc1-n1c(=O)n(C2CC2)c(=O)c2c(Nc3ccc(Cl)cc3)cc(=O)n(C)c21 [Example 1-104] | ≥ 1.5 | ≥ 1.2 |  |  | 
< 10 | 10 to 100 | C#Cc1ccc(Nc2c3c(=O)n(C4CC4)c(=O)n(-c4cccc(NS(C)(=O)=O)c4)c3c(C)c(=O)n2C)c(F)c1 [Example 3-8] | ≥ 1.5 |  |  |  | 27
< 10 | 10 to 100 | C#Cc1ccc(Nc2c3c(=O)n(C4CC4)c(=O)n(-c4cccc(NC(C)=O)c4)c3c(C)c(=O)n2C)c(F)c1 [Example 4-3, N-{3-[3-cyclopropyl-5-(4-ethynyl-2-fluorophenylamino)-6,8-dimethyl-2,4,7-trioxo-3,4,6,7-tetrahydro-2H-pyrido[4,3-d]pyrimidin-1-yl]phenyl}acetamide] | ≥ 1.5 |  | ≥ 1.5 | ≥ 1.2 | 
< 10 | 10 to 100 | CC(=O)Nc1cccc(-n2c(=O)n(C)c(=O)c3c(Nc4ccc(I)cc4F)n(C)c(=O)c(C)c32)c1 [Example 4-15] | ≥ 1.5 |  | ≥ 1.5 |  | 31
< 10 | 10 to 100 | C#Cc1ccc(Nc2c3c(=O)n(C)c(=O)n(-c4cccc(NS(C)(=O)=O)c4)c3c(C)c(=O)n2C)c(F)c1 [Example 4-49] | ≥ 1.5 |  | ≥ 1.5 |  | 35
< 10 | < 10 | Cc1c(=O)n(C)c(Nc2ccc(I)cc2F)c2c(=O)n(C3CC3)c(=O)n(-c3cccc(NS(N)(=O)=O)c3)c12 [Example 4-54] | ≥ 1.5 |  | ≥ 1.5 |  | 11
< 10 | 10 to 100 | Cc1c(=O)n(C)c(Nc2ccc(I)cc2F)c2c(=O)n(C3CC3)c(=O)n(-c3ccc(NS(C)(=O)=O)cc3)c12 [Example 4-70] | ≥ 1.5 |  | ≥ 1.5 | ≥ 1.2 | 31
< 10 | 10 to 100 | Cc1c(=O)n(C)c(Nc2ccc(I)cc2F)c2c(=O)n(C3CC3)c(=O)n(-c3cccc(NC(=O)CO)c3)c12 [Example 4-82] | ≥ 1.5 |  | ≥ 1.5 | ≥ 1.2 | 
< 10 | < 10 | Cc1c(=O)n(C)c(Nc2ccc(I)cc2F)c2c(=O)n(C3CC3)c(=O)n(-c3ccc(S(N)(=O)=O)cc3)c12 [Example 4-104] | ≥ 1.5 |  | ≥ 1.5 | ≥ 1.2 | 
< 10 | < 10 | Cc1c(=O)n(C)c(Nc2ccc(I)cc2F)c2c(=O)n(C3CC3)c(=O)n(-c3ccc4oc(=O)[nH]c4c3)c12 [Example 4-126] | ≥ 1.5 |  | ≥ 1.5 | ≥ 1.2 | 
